Columns and labels:
Hs68 cells = assay: Cell proliferation assay (CCK-8), Hs68 cells; assay type: cell-based, human; details: 25 mM glucose, 24 hours, vs control group
Experimental: (§1) Human Foreskin Fibroblast, Hs68 cells and human keratinocytes, HaCaT cells were cultured in Dulbecco's Modified Eagle Medium (DMEM) added with glucose and 10% fetal calf serum, and then the cells were put in a humidified incubator with an air of 5% carbon dioxide and 95% oxygen. The medium was changed every two days. The subculture was performed, and then treated with 0.25% trypsin (TRYPSIN-EDTA) mixture. Finally, the cells were collected and diluted at a ratio of 1:5 for re-culture. The cells used in the efficacy test had passage numbers ranging from 12 to 40.
The Hs68 cells were cultured in DMEM culture medium for 24 hours. The cell growth and survival status were analyzed with the CCK-8 reagent kit (DOJINDO MOLECULAR TECHNOLOGIES, KUMAMOTO, JAPAN). 10 μL CCK-8 solution to each cell culture was added and the cell culture was incubated at 37° C. for one hour, and then the cells were measured by the spectrophotometer MICROPLATE READER (THERMO LABSYSTEMS MULTISKAN RC) at 450 nm absorption, and the experimental results were analyzed by a comparison with the control group.

HaCaT cells = assay: Cell proliferation assay (CCK-8), HaCaT cells; assay type: cell-based, human; details: 25 mM glucose, 48 hours, vs control group
Experimental: as §1
HaCaT cells at the number of 5×10^3 were cultured Culture in DMEM culture medium for 48 hours. The cell growth and survival status were analyzed with the CCK-8 reagent kit (DOJINDO MOLECULAR TECHNOLOGIES, KUMAMOTO, JAPAN). 10 μL CCK-8 solution was added to each cell culture and the cells were incubated at 37° C. for one hour, and then the cells were measured by the spectrophotometer MICROPLATE READER (THERMO LABSYSTEMS MULTISKAN RC) at 450 nm absorption, and the experimental results were analyzed by a comparison with the control group.

[1] = test system: IL-6 gene expression in THP1 cells differentiated into M1-type macrophages; assay: Real-time PCR inflammatory gene expression assay, IL-6; assay type: cell-based, human; details: 16 μM; THP1 differentiation into M1-type macrophages (LPS, IFN-γ); 25 mM glucose
Experimental: (§2) Human acute monocytic leukemia, THP1 cells were cultured in Roswell Park Memorial Institute (RPMI) 1640 medium added with 10% fetal calf serum, and then the cells were put in a humidified incubator at 37° C., and with an air of 5% carbon dioxide and 95% oxygen.
(§3) THP1 cells were treated with 100 ng/ml of phorbol 12-myristate 13-acetate (PMA) for 24 hours to induce activation. The following day, the medium was replaced with RPMI 1640 (25 mM Glucose, 10% FBS) and incubated for another 24 hours. The cells were then differentiated into M1 phase macrophages by switching to RPMI 1640 medium containing LPS (10 pg/ml) and IFN-γ (20 ng/ml), and into M2 phase macrophages using RPMI 1640 medium containing IL-4 (20 ng/ml) and IL-13 (20 ng/ml). During the 48-hour differentiation process, the test drug Nusynside (16 μM) was added. After 24 hours of differentiation, mRNA from M1 and M2 phase macrophages was extracted using the PROTECH Kit, and reverse transcription of mRNA into cDNA was performed with the Protech MMLV Reverse Transcription Kit. Gene expression was subsequently observed. According to the POWERTRACK SYBR dye protocol, the cDNA was mixed, and gene expression was analyzed using the StepOnePlus Real-Time PCR Systems to examine inflammatory gene expression when THP1 cells were differentiated into M1 and M2 phase macrophages in the presence of Nusynside (16 μM).

[2] = test system: TNF-α gene expression in THP1 cells differentiated into M1-type macrophages; assay: Real-time PCR inflammatory gene expression assay, TNF-α; assay type: cell-based, human; details: 16 μM; THP1 differentiation into M1-type macrophages (LPS, IFN-γ); 25 mM glucose
Experimental: as §2, §3

[3] = test system: full-skin wound in BKS.Cg-Dock7m+/+ Leprdb/Jnarl male mice; assay: Diabetic mice wound healing study; assay type: in vivo; details: Nusynside 0.23 mg, Day 17 after continuous administration, compared to Blank group
Experimental: BKS.Cg-Dock7m+/+ Leprdb/Jnarl male mice, an established diabetes model, were obtained from the National Applied Research Laboratories, Taiwan. The experiment was conducted when the mice were 6 to 7 weeks old. A full-skin wound of the same size with a diameter of about 6 mm was made on the left and right sides of each mouse's back.
Total 14 mice were randomly divided into 4 groups based on body weight: (i) Nusynside test group (administrated with Nusynside 0.23 mg) (n=4); (ii) Positive Control group (administrated with cream containing Centella Asiatica and Plectranthus amboinicus extract) (n=4); (iii) Vehicle Control group (administrated with ointment base) (n=3); (vi) Blank group (n=3). The animals underwent bilateral incisions and were housed individually in separate cages after the incisions, in the IVC housing system of the general SPF breeding area. Daily external cage observations were conducted by the animal caretakers. On the day of the incision and during follow-up photography, the body weight of the animals, wound appearance, and wound area were measured and recorded, except that the wound had healed resulting in it disable to be measured, the measurements were taken twice a week.

**Q.** For `CC1OC(OC2C(O)C(OCCc3ccc(O)c(O)c3)OC(CO)C2OC(=O)CCc2ccc(O)c(O)c2)C(O)C(O)C1O` (centres unmarked) [Nusynside], which “promotion of cell proliferation of Hs68 cells” value (Hs68 cells; 16 μM) is on record?
**A.** 9%

**Q.** What about the “promotion of cell proliferation of Hs68 cells” value (Hs68 cells; 32 μM) of the same compound?
**A.** 12%

**Q.** And the “promotion of cell proliferation of HaCaT cells” value (“promotion … of HaCaT cells” below) (HaCaT cells; 3.2 μM)?
**A.** 12%

**Q.** What about the “promotion … of HaCaT cells” value (HaCaT cells; 16 μM) of the same compound?
**A.** 17%

**Q.** And the “promotion … of HaCaT cells” value (HaCaT cells; 32 μM)?
**A.** 14%

**Q.** And the “expression of IL-6 gene” value [1]?
**A.** significantly downregulated

**Q.** What about the “expression of TNF-α gene” value [2] of the same compound?
**A.** significantly downregulated

**Q.** And the wound healing rate [3]?
**A.** significantly increased the wound healing rate

Reference: patent publication US20250129113A1, “NEW GLYCOSIDE COMPOUND AND PREPARATION PROCESS THEREOF” (SunIn Biotech Co., Ltd., priority 2023, published 2025)
